The text below walks through data of US11613531B2, “Inhibitors of RHO associated coiled-coil containing protein kinase” (Kadmon Corporation, LLC, priority 2017, dated 2023).

The subject of the first experiment is ppMlc (T18/S19) levels in A7R5 cells. In words: A7R5 in-cell ELISA (pMLC). In kind it is cell-based, Rat. The settings on record: A7R5 cells, 1 μM compound. The method, then: Determination of Compounds ROCK Inhibitory Activity in A7R5Cells.
Rat aortic smooth muscle cell line, A7R5, cells were seeded with density of 5,000 cells/well in a 96-well plates for 24 hours and subsequently treated for 90 min with testing compounds. Cells were then fixed and processed according to the In-Cell ELISA Colorimetric Detection Kit manual (Thermo Scientific).
An A7R5 in-cell Elisa assay was performed. A7R5 cells were treated with 9 points 2 fold serial dilution of compounds and ppMlc (T18/S19) levels were determined to calculate cellular IC50 values of the compounds. Compounds of the invention gave in cell IC50s under 100 nM.
In vitro activities for the compounds were measured with Z′-lyte kinase kit (ThermoFisher Scientific). The percent inhibition rate was calculated by normalizing the kinase activity value obtained with 1 μM compound treatment against DMSO control value and then applied to the formula, [1-(compound/DMSO)]×100%. IC50s were calculated using the nonlinear regression curve fit function of the GraphPad Prism software with kinase activities data measured with 9 points 2-fold serial dilution of compounds treatment. In cell pMLC IC50s were calculated with data obtained from A7R5 cell experiments. A7R5 cells were treated with 9 points 2-fold serial dilution of compounds and ppMlc (T18/S19) levels were determined to calculate cellular IC50 values of the compounds using the nonlinear regression curve fit function of the GraphPad Prism software. NIH3T3 cells stably expressing ACTA2-promoter-driven-luciferase were applied to measure ROCK compounds functional IC50s in cells. Cells were plated in 96 well plates to confluence and treated with 9 points serial dilution of compounds in combination with TGFβ1 for 24 hr. Luciferase activities were measured and compound's IC50s were calculated using the nonlinear regression curve fit function of the GraphPad Prism software.
For orientation: An ELISA detects its analyte on a solid surface through an enzyme-linked reagent.
For the compound `c1cc(Nc2ccc3[nH]ncc3c2)nc(N2CCCC(C3CCCNC3)C2)n1` (centres unmarked) [Example 86, N-(2-([3,3′-bipiperidin]-1-yl)pyrimidin-4-yl)-1H-indazol-5-amine], the “pMLC % inh A7R5 @ [conc]” value amounted to 377.49%.

The experiment is the same for the next values; noted with them: Rattus norvegicus, A7R5, A7R5 cells, 1 μM compound; read-out: pMLC % inh A7R5 @ [conc].
For the compound `O=C1CN(c2nccc(Nc3ccc4[nH]ncc4c3)n2)CCN1` [Example 17, 4-(4-((1H-indazol-5-yl)amino)pyrimidin-2-yl)piperazin-2-one], the inhibition at 1 µM is 11.2%.

Regarding `c1cc(Nc2ccc3[nH]ncc3c2)nc(N2CCC3(CC2)CNC3)n1` [Example 70, N-(2-(2,7-diazaspiro[3.5]nonan-7-yl)pyrimidin-4-yl)-1H-indazol-5-amine], the inhibition at 1 µM was -9.7%.

On to `c1cc(Nc2ccc3[nH]ncc3c2)nc(N2CCC3(CNC3)C2)n1` [Example 71, N-(2-(2,6-diazaspiro[3.4]octan-6-yl)pyrimidin-4-yl)-1H-indazol-5-amine], for which the inhibition at 1 µM is -12.8%.

Consider `c1cc(Nc2ccc3[nH]ncc3c2)nc(N2CCC3(CC2)CNCCO3)n1` [Example 72, N-(2-(1-oxa-4,9-diazaspiro[5.5]undecan-9-yl)pyrimidin-4-yl)-1H-indazol-5-amine], for which the inhibition at 1 µM was -6.7%.

For `c1cc(Nc2ccc3[nH]ncc3c2)nc(N2CCC3(CCCNC3)C2)n1` (centres unmarked) [Example 73, N-(2-(2,7-diazaspiro[4.5]decan-2-yl)pyrimidin-4-yl)-1H-indazol-5-amine], the inhibition at 1 µM is -4.8%.

With `c1cc(Nc2ccc3[nH]ncc3c2)nc(N2CCCC3(CCNC3)C2)n1` (centres unmarked) [Example 74, N-(2-(2,7-diazaspiro[4.5]decan-7-yl)pyrimidin-4-yl)-1H-indazol-5-amine], the inhibition at 1 µM stood at 2.7%.

For `c1cc(Nc2ccc3[nH]ncc3c2)nc(N2CC3(CCNC3)C2)n1` [Example 75, N-(2-(2,6-diazaspiro[3.4]octan-2-yl)pyrimidin-4-yl)-1H-indazol-5-amine], the inhibition at 1 µM was -8.7%.

For the compound `c1cc(Nc2ccc3[nH]ncc3c2)nc(N2CC3(CCNCC3)C2)n1` [Example 76, N-(2-(2,7-diazaspiro[3.5]nonan-2-yl)pyrimidin-4-yl)-1H-indazol-5-amine], the inhibition at 1 µM amounted to 0%.

Consider `c1cc(Nc2ccc3[nH]ncc3c2)nc(N2CC3(CNC3)C2)n1` [Example 77, N-(2-(2,6-diazaspiro[3.3]heptan-2-yl)pyrimidin-4-yl)-1H-indazol-5-amine], for which the inhibition at 1 µM is -2.9%.

In the case of `c1cc(Nc2ccc3[nH]ncc3c2)nc(N2CC3CNCC(C3)C2)n1` [Example 79, N-(2-(3,7-diazabicyclo[3.3.1]nonan-3-yl)pyrimidin-4-yl)-1H-indazol-5-amine], the inhibition at 1 µM was 9.8%.

Take `c1cc(Nc2ccc3[nH]ncc3c2)nc(N2CCC3NCCC3C2)n1` (centres unmarked) [Example 80, N-(2-(octahydro-5H-pyrrolo[3,2-c]pyridin-5-yl)pyrimidin-4-yl)-1H-indazol-5-amine]: the inhibition at 1 µM is 11.9%.

Consider `c1cc(Nc2ccc3[nH]ncc3c2)nc(N2C[C@@H]3CN[C@@H]3C2)n1` [Example 81, N-(2-((1S,5S)-3,6-diazabicyclo[3.2.0]heptan-3-yl)pyrimidin-4-yl)-1H-indazol-5-amine], for which the inhibition at 1 µM is 13.2%.

`c1cc(Nc2ccc3[nH]ncc3c2)nc(N2CCC(C3CNC3)C2)n1` (centres unmarked) [Example 83, N-(2-(3-(azetidin-3-yl)pyrrolidin-1-yl)pyrimidin-4-yl)-1H-indazol-5-amine]: the inhibition at 1 µM was 2.1%.

As for `Cc1cc(Nc2ccc3[nH]ncc3c2)nc(N2CCC3(CC2)CNC3)n1` [Example 121, N-(6-methyl-2-(2,7-diazaspiro[3.5]nonan-7-yl)pyrimidin-4-yl)-1H-indazol-5-amine], the inhibition at 1 µM was -7.3%.

In the case of `Cc1cc(Nc2ccc3[nH]ncc3c2)nc(N2CCC3(CNC3)C2)n1` [Example 122, N-(6-methyl-2-(2,6-diazaspiro[3.4]octan-6-yl)pyrimidin-4-yl)-1H-indazol-5-amine], the inhibition at 1 µM was -6.8%.

Regarding `Cc1cc(Nc2ccc3[nH]ncc3c2)nc(N2CCC3(CC2)CNCCO3)n1` [Example 123, N-(6-methyl-2-(1-oxa-4,9-diazaspiro[5.5]undecan-9-yl)pyrimidin-4-yl)-1H-indazol-5-amine], the inhibition at 1 µM was -0.8%.

The experiment is the same for the next values; noted with them: Rattus norvegicus, A7R5, A7R5 cells, 10 μM compound; read-out: pMLC % inh A7R5 @ [conc].
In the case of `c1ccc(CC2CN(c3nc4c(c(Nc5ccc6[nH]ncc6c5)n3)COC4)CCCN2)cc1` (centres unmarked) [Example 2, 2-(3-benzyl-1,4-diazepan-1-yl)-N-(1H-indazol-5-yl)-5,7-dihydrofuro[3,4-d]pyrimidin-4-amine], the inhibition at 10 µM turned out to be 72.4%.

Take `Cc1cnc(N2CCCNCC2)nc1Nc1ccc2[nH]ncc2c1` [Example 3, N-(2-(1,4-diazepan-1-yl)-5-methylpyrimidin-4-yl)-1H-indazol-5-amine]: the inhibition at 10 µM was 54.4%.

Turning to `Cc1nc(N2CCCNC(C(C)C)C2)nc(Nc2ccc3[nH]ncc3c2)c1C` (centres unmarked) [Example 16, N-(2-(3-isopropyl-1,4-diazepan-1-yl)-5,6-dimethylpyrimidin-4-yl)-1H-indazol-5-amine], the inhibition at 10 µM was found to be 32.1%.

Turning to `Cc1nc(N2CCCNC(c3ccccc3)C2)nc(Nc2ccc3[nH]ncc3c2)c1C` (centres unmarked) [Example 20, N-(5,6-dimethyl-2-(3-phenyl-1,4-diazepan-1-yl)pyrimidin-4-yl)-1H-indazol-5-amine], the inhibition at 10 µM was determined as 37.6%.

On to `Cc1nc(N2CCNC(c3ccccc3)CC2)nc(Nc2ccc3[nH]ncc3c2)c1C` (centres unmarked) [Example 21, N-(5,6-dimethyl-2-(5-phenyl-1,4-diazepan-1-yl)pyrimidin-4-yl)-1H-indazol-5-amine], for which the inhibition at 10 µM was found to be 21.1%.

For the compound `Cc1nc(N2CC(C)NC(C)C2)nc(Nc2ccc3[nH]ncc3c2)c1C` (centres unmarked) [Example 24, N-(2-(3,5-dimethylpiperazin-1-yl)-5,6-dimethylpyrimidin-4-yl)-1H-indazol-5-amine], the inhibition at 10 µM is 22.6%.

Consider `c1cncc(-c2ccc(Nc3ccnc(N4CCNCC4)n3)cc2)c1` [Example 40, 2-(piperazin-1-yl)-N-(4-(pyridin-3-yl)phenyl)pyrimidin-4-amine], for which the inhibition at 10 µM came to 13.4%.

Take `c1cc(Nc2ccc(-c3nnn[nH]3)cc2)nc(N2CCNCC2)n1` [Example 42, N-(4-(1H-tetrazol-5-yl)phenyl)-2-(piperazin-1-yl)pyrimidin-4-amine]: the inhibition at 10 µM was determined as 9.1%.

With `COc1cnc(N2CCCNC(c3ccccc3)C2)nc1Nc1ccc2[nH]ncc2c1` (centres unmarked) [Example 48, N-(5-methoxy-2-(3-phenyl-1,4-diazepan-1-yl)pyrimidin-4-yl)-1H-indazol-5-amine], the inhibition at 10 µM was 51.1%.

On to `COc1cnc(N2CCNC(c3ccccc3)CC2)nc1Nc1ccc2[nH]ncc2c1` (centres unmarked) [Example 50, N-(5-methoxy-2-(5-phenyl-1,4-diazepan-1-yl)pyrimidin-4-yl)-1H-indazol-5-amine], for which the inhibition at 10 µM was determined as 35.5%.

With `COc1cnc(N2CC(C)NC(C)C2)nc1Nc1ccc2[nH]ncc2c1` (centres unmarked) [Example 52, N-(2-(3,5-dimethylpiperazin-1-yl)-5-methoxypyrimidin-4-yl)-1H-indazol-5-amine], the inhibition at 10 µM worked out at 29.5%.

For `Cc1cnc(N2CCCNC(C(C)C)C2)nc1Nc1ccc2[nH]ncc2c1` (centres unmarked) [Example 92, N-(2-(3-isopropyl-1,4-diazepan-1-yl)-5-methylpyrimidin-4-yl)-1H-indazol-5-amine], the inhibition at 10 µM worked out at 19.6%.

`Cc1cnc(N2CCNC(C(C)C)CC2)nc1Nc1ccc2[nH]ncc2c1` (centres unmarked) [Example 93, N-(2-(5-isopropyl-1,4-diazepan-1-yl)-5-methylpyrimidin-4-yl)-1H-indazol-5-amine]: the inhibition at 10 µM was 21.1%.

On to `Cc1cnc(N2CCNC(c3ccccc3)CC2)nc1Nc1ccc2[nH]ncc2c1` (centres unmarked) [Example 94, N-(5-methyl-2-(5-phenyl-1,4-diazepan-1-yl)pyrimidin-4-yl)-1H-indazol-5-amine], for which the inhibition at 10 µM was determined as 19.2%.

With `CCC1CN(c2ncc(C)c(Nc3ccc4[nH]ncc4c3)n2)CCN1` (centres unmarked) [Example 99, N-(2-(3-ethylpiperazin-1-yl)-5-methylpyrimidin-4-yl)-1H-indazol-5-amine], the inhibition at 10 µM was found to be 29.6%.

On to `Cc1cnc(N2CCCNC(c3ccccc3)C2)nc1Nc1ccc2[nH]ncc2c1` (centres unmarked) [Example 103, N-(5-methyl-2-(3-phenyl-1,4-diazepan-1-yl)pyrimidin-4-yl)-1H-indazol-5-amine], for which the inhibition at 10 µM came out at 38.3%.

As for `Cc1cc(Nc2ccc3[nH]ncc3c2)nc(N2CCNC(c3ccccc3)CC2)n1` (centres unmarked) [Example 108, N-(6-methyl-2-(5-phenyl-1,4-diazepan-1-yl)pyrimidin-4-yl)-1H-indazol-5-amine], the inhibition at 10 µM worked out at 47.3%.

In the case of `Cc1cc(Nc2ccc3[nH]ncc3c2)nc(N2CCCNC(c3ccccc3)C2)n1` (centres unmarked) [Example 112, N-(6-methyl-2-(3-phenyl-1,4-diazepan-1-yl)pyrimidin-4-yl)-1H-indazol-5-amine], the inhibition at 10 µM came out at 56.9%.

The experiment is the same for the next values; noted with them: Rattus norvegicus, A7R5, A7R5 cells, ppMlc (T18/S19).
As for `c1ccc(CC2CN(c3nc4c(c(Nc5ccc6[nH]ncc6c5)n3)COC4)CCCN2)cc1` (centres unmarked) [Example 2, 2-(3-benzyl-1,4-diazepan-1-yl)-N-(1H-indazol-5-yl)-5,7-dihydrofuro[3,4-d]pyrimidin-4-amine], the IC50 (usually the midpoint of a concentration-inhibition curve) came out at 2500 nM.

On to `COc1cnc(N2CCCNC(c3ccccc3)C2)nc1Nc1ccc2[nH]ncc2c1` (centres unmarked) [Example 48, N-(5-methoxy-2-(3-phenyl-1,4-diazepan-1-yl)pyrimidin-4-yl)-1H-indazol-5-amine], for which the IC50 stood at 2580 nM.

Take `Cc1cc(Nc2ccc3[nH]ncc3c2)nc(N2CCCNC(c3ccccc3)C2)n1` (centres unmarked) [Example 112, N-(6-methyl-2-(3-phenyl-1,4-diazepan-1-yl)pyrimidin-4-yl)-1H-indazol-5-amine]: the IC50 was 1290 nM.
